In series [1] the test system is CYP3A4. The arrangement: method as in PMID 26331791. As to conditions: non-labeled ODV ref 11; cited from earlier work.
In series [2] the test system is CYP3A4. The experiment in a line: Inhibition of CYP-mediated metabolism of 125I-ODV by selective inhibitor (ketoconazole). It counts as in vitro ADME. Particulars: ddY, mouse, pooled mouse liver homogenate (MLH), pH 7.4, probe 125I-ODV; inhibitor 10 µM, compared with NADPH [+]. The protocol: (§1) The pooled MLH was stored at −80 °C.
(§2) For inhibition analysis of specific isozymes of CYP-mediated metabolism of ^125I-ODV, selective inhibitors of CYP isozymes employed in this study included α-naphthoflavone (an inhibitor of CYP1A1 and 1A2), sulfaphenazole (CYP2C9), fluconazole (CYP2C19), paroxetine (CYP2D6), 4-methylpyrazole (CYP2E1), and ketoconazole (CYP3A4). These selective inhibitors were used to elucidate the CYP responsible for the biotransformation of ^125I-ODV. Each inhibitor was dissolved at 10 µM (dimethyl sulfoxide 0.8% v/v final concentration). […] The sample was incubated at 37 °C for 15 min with gentle shaking. The reaction was stopped by adding 100 µL ethanol, and the sample was centrifuged for 5 min at 18,000 g.

Series [3] relates to CYP2D6. Description: Inhibition of CYP-mediated metabolism of 125I-ODV by selective inhibitor (paroxetine). The series is classed as in vitro ADME. As to conditions: ddY, mouse, pooled mouse liver homogenate (MLH), pH 7.4, probe 125I-ODV; inhibitor 10 µM, compared with NADPH [+]. The protocol:
as §1, §2

`CN(C)CC(c1ccc(O)cc1)C1(O)CCCCC1` (stereo not drawn) [ODV, O-desmethylvenlafaxine]: the “CYP isozyme metabolizing ODV” value in series [1] is recorded as “metabolized only by CYP3A4”.

In turn, `CC(=O)N1CCN(c2ccc(OCC3COC(Cn4ccnc4)(c4ccc(Cl)cc4Cl)O3)cc2)CC1` (stereo not drawn) [ketoconazole] showed an inhibition at 15 min, 10 µM in series [2] of 63%.

On to `Fc1ccc([C@@H]2CCNC[C@H]2COc2ccc3c(c2)OCO3)cc1` [paroxetine], for which the inhibition at 15 min, 10 µM in series [3] stood at 79%.

Usually inhibition stands for the percentage by which the read-out fell short of the control. Read a high inhibition as a strong effect.
